# How the values were obtained:
# [1] = tested on: colorectal cancer organoids; assay: Colorectal cancer organoid viability (growth rate and death rate); type: cell-based, human; details: for increase in efficacy (cancer organoid death) of the combination of the HVEM inhibitor with the HSP inhibitor compared to HVEM inhibitor alone: 72 hours after treatment, FIG. 6
# Protocol: To evaluate whether the combination of HVEM inhibitor and HSP inhibitor exerts a synergistic effect as a cancer preventive or therapeutic agent, we conducted the following experiment. Specifically, colorectal cancer organoids were treated with either an HVEM inhibitor alone, an HSP inhibitor alone, or a combination of both. The anticancer efficacy of the combination treatment was assessed by measuring cancer organoid viability.
# For HVEM inhibitor, anti-HVEM antibodies (CW10, Santa Cruz, #sc-21718; R&D Systems, #MAB356-SP) were used at 10 nM. For inhibitor of HVEM ligands, anti-BTLA antibodies (Mybiosource, #MBS633646; Adipogen, #AG-20B-0049) were used at 10 nM. For HSP inhibitors, Luminespib (AUY922, Selleck, #s1069; HSP90-targeting), Ganetespib (STA-9090, Selleck, #s1159; HSP90-targeting), Tanespimycin (17-AAG, Selleck, #s1141; HSP90-targeting), BIIB021 (Selleck, #s1175; HSP90-targeting), Onalespib (AT13387, Selleck, #s1163; HSP90-targeting), HSP990 (#s7097; Selleck, HSP90-targeting), KNK437 (#s7750; Selleck, HSP40-targeting), and VER-155008 (Selleck, #s7751; HSP70-targeting) were used.
# The viability of cancer organoids was assessed through growth rate and death rate of cancer organoids as follows.
# [2] = tested on: colorectal cancer organoids xenograft tumors; assay: Mouse tumor xenograft model using colorectal cancer organoids, humanized with PBMCs; type: in vivo; details: harvested tumor tissues, FIG. 10
# Protocol: Specifically, monotherapy with an HVEM inhibitor, monotherapy with a BTLA inhibitor, monotherapy with an HSP inhibitor, combination therapy with an HVEM inhibitor and an HSP inhibitor, combination therapy with a BTLA inhibitor and an HSP inhibitor, or combination therapy with an HVEM inhibitor, a BTLA inhibitor, and an HSP inhibitor was administered to a mouse tumor xenograft model using colorectal cancer organoids. In addition, since the effect of inhibitors of HVEM and its ligand requires the presence of immune cells, PBMCs were introduced into the mice bearing the xenograft tumors to generate humanized mice. The inhibitors were administered a total of four times on days 15, 18, 21, and 24 after tumor transplantation.
# As an HVEM (Herpesvirus entry mediator) inhibitor, an anti-HVEM antibody (CW10, Santa Cruz, #sc-21718) was used at a dose of 1 mg/kg; as an inhibitor of the HVEM ligand, an anti-BTLA antibody (Mybiosource, #MBS633646) was used at a dose of 1 mg/kg; and as an HSP (heat shock protein) inhibitor, Luminespib (AUY922, Selleck, #s1069; targeting HSP90) was used at a dose of 0.5 mg/kg.
# From day 7 after tumor implantation, tumor size was measured three times per week. After completion of the experiment, the shape of the harvested tumors was analyzed, and tumor weight was measured. […]
# [3] = colorectal cancer organoids, increasing concentrations
Structure (SMILES),increase in efficacy (cancer organoid death) of the combination of the HVEM inhibitor with the HSP inhibitor compared to HVEM inhibitor alone ([1]; colorectal cancer organoids),hCD8+ T cells infiltrated into the tumor tissue (IHC) [2],"increase in cancer organoid death rate, high concentration vs low concentration ([1]; 100 nM or higher compared to 1 to 5 nM)","cancer organoid death rate [1, 3]","growth rate of cancer organoids over time [1, 3]"
"C=CCNC1=C2C[C@@H](C)C[C@H](OC)[C@H](O)[C@@H](C)/C=C(\C)[C@H](OC(N)=O)[C@@H](OC)/C=C\C=C(/C)C(=O)NC(=CC1=O)C2=O [17-AAG, Tanespimycin]",approximately 2.9 fold,–,–,–,–
"CCNC(=O)c1noc(-c2cc(C(C)C)c(O)cc2O)c1-c1ccc(CN2CCOCC2)cc1 [AUY922, Luminespib]",≥ 3.4 fold,barely detected,> 3.6 fold,increased cancer organoids death rate,reduced growth over time
"CC(C)c1cc(-c2n[nH]c(=O)n2-c2ccc3c(ccn3C)c2)c(O)cc1O [STA-9090, Ganetespib]",approximately 2.9 fold,–,–,–,–
